# Measured values as given in paper PMC5576918, “Small molecule inhibition of apicomplexan FtsH1 disrupts plastid biogenesis in human pathogens” (eLife, 2017).
# Like-named read-outs stand apart in the source and are kept apart here.
# Tests used:
# P. falciparum [1] = experiment: microbe, parasite or virus in culture; parameters: species or system P. falciparum asexual blood stages in human erythrocytes; Blood-stage parasite growth inhibition over two lytic cycles, YOYO-1 parasitemia by flow cytometry; details: Plasmodium falciparum, Erythrocyte, 96 h, read-out: 96h
# Method: (§1) For P. falciparum EC50 calculations, growth assays were performed in 96 well plates containing serial dilution of drugs in triplicate. Media was supplemented with 200 uM IPP as indicated. Growth was initiated with ring-stage parasites (synchronized with 5% sorbitol treatment) at 1% parasitemia and 1% hematocrit. […] Parasitized cells were stained with 50 nM YOYO-1 (Invitrogen) overnight at room temperature and the parasitemia was determined by flow cytometry (BD Accuri C6 Sampler). Data were analyzed by BD Accuri C6 Sampler software. […] A single natural product antibiotic, actinonin, matched our criteria (Figure 1a) ([Gordon et al., 1962]). […] Because isoprenoid precursor biosynthesis is the only essential function of the apicoplast in blood-stage P. falciparum, any disruption of the apicoplast, including complete loss of the organelle, can be rescued by addition of the isoprenoid precursor, isopentenyl pyrophosphate (IPP), in the growth media ([Yeh and DeRisi, 2011]). […] Compared to chloramphenicol, actinonin clearly had more rapid antimalarial activity.
# P. falciparum [2] = experiment: microbe, parasite or virus in culture; parameters: species or system P. falciparum asexual blood stages in human erythrocytes; Blood-stage parasite growth inhibition over one lytic cycle, YOYO-1 parasitemia by flow cytometry; details: Plasmodium falciparum, Erythrocyte, 48 h, read-out: 48h
# Method: as §1
# PfFtsH1 = molecular target: T1, PfFtsH1 (Plasmodium falciparum, UniProt Q8I526); experiment: ATP-dependent FITC-casein proteolysis by purified recombinant PfFtsH1, fluorescence; assay type: biochemical
# T1 construct: gene PF3D7_1239700; His6-SUMO-PfFtsH1_91-612-GST (AAA+ ATPase and peptidase domains, lacking transmembrane domain)
# T1 sequence (Q8I526 entry or part of it): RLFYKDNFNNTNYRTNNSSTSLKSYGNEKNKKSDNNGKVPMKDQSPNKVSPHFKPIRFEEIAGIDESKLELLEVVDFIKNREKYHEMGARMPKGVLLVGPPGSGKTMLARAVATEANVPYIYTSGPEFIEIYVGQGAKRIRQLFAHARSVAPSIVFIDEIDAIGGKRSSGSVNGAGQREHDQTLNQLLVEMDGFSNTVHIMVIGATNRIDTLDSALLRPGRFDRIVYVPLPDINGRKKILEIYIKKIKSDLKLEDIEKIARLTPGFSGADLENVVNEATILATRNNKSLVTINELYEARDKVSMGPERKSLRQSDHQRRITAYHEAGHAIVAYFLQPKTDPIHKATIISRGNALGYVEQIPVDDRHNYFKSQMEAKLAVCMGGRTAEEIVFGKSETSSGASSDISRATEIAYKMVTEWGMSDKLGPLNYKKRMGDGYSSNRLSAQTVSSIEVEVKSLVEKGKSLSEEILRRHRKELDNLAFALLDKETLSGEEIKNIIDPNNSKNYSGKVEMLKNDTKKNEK
SMILES,EC50 (P. falciparum [1]),EC50 (P. falciparum [2]),IC50 (PfFtsH1)
CO[C@H]1/C=C/O[C@@]2(C)Oc3c(C)c(O)c4c(O)c(c(/C=N/N5CCN(C)CC5)c(O)c4c3C2=O)NC(=O)/C(C)=C\C=C\[C@H](C)[C@H](O)[C@@H](C)[C@@H](O)[C@@H](C)[C@H](OC(C)=O)[C@@H]1C [rifampin],2 µM,1 µM,
Nc1ccn([C@@H]2O[C@H](CO)[C@@H](O)[C@H]2F)c(=O)n1 [2'deoxy-2-F-cytidine],> 200 µM,> 200 µM,
O=C(O)c1cn(C2CC2)c2cc(N3CCNCC3)c(F)cc2c1=O [ciprofloxacin],6 µM,24 µM,
CCCCC[C@H](CC(N)=O)C(=O)N[C@H](C(=O)N1CCC[C@H]1CO)C(C)C [actinamide],,,7.3 µM
CO[C@@H]1[C@@H](OC(N)=O)[C@@H](O)[C@H](Oc2ccc3c(O)c(NC(=O)c4ccc(O)c(CC=C(C)C)c4)c(=O)oc3c2C)OC1(C)C [novobiocin],36 µM,40 µM,
CCCCC[C@H](CC(=O)NO)C(=O)N[C@H](C(=O)N1CCC[C@H]1CO)C(C)C [actinonin],2.7 µM,3.2 µM,
CC(C)C(=O)OC[C@H]1O[C@@H](n2ccc(N)nc2=O)[C@](C)(F)[C@@H]1OC(=O)C(C)C [mericitabine],> 200 µM,> 200 µM,
CCn1cc(C(=O)O)c(=O)c2cc(F)c(N3CCNCC3)cc21 [norfloxacin],10 µM,40 µM,
C[C@H]1COc2c(N3CCN(C)CC3)c(F)cc3c(=O)c(C(=O)O)cn1c23 [levofloxacin],16 µM,70 µM,
CCn1cc(C(=O)O)c(=O)c2cc(F)c(N3CCNCC3)nc21 [enoxacin],5.7 µM,> 50 µM,
